We go through one compound from paper PMC12974487, “Inhibition of FicD-mediated AMPylation and deAMPylation by isoprenoid diphosphates” (Proceedings of the National Academy of Sciences of the …, 2026).

The target of the test is T1, FicD^L258D (Homo sapiens, UniProt Q9BVA6, L258D).
T1 construct: soluble ER luminal domain (residues 105 to 458) of wild-type human FicD and three mutants; 6xHis-Sumo (N, cleaved yes); made in house; host or cells: Rosetta(DE3) E. coli
T1 sequence (Q9BVA6 105-458 L258D): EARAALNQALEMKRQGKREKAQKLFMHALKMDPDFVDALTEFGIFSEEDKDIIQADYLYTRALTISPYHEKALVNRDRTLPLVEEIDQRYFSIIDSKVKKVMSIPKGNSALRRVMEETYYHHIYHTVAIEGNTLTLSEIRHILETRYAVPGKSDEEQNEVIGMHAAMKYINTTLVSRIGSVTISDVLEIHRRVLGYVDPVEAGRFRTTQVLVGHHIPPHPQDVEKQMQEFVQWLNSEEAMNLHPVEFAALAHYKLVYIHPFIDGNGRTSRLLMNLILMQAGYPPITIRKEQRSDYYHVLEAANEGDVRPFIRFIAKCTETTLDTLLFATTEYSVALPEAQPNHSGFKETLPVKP
The test is described as follows: Isothermal titration calorimetry (ITC) with Δ104hFicD^L258D. It counts as binding. Particulars: 4 mM MgCl2. The source says: To further support this notion, we used Isothermal Titration Calorimetry (ITC) to determine the Kd of FPP binding. […] In these experiments, the interaction between FPP and Mg^2+ generated endothermic peaks that interfered with detecting the interaction between FPP, Mg^2+, and FicD (Fig. 3, Upper). The stoichiometry of FPP binding to FicD was consistently <0.85, which may indicate that Mg^2+ was not saturating. Because the endothermic interaction between Mg^2+ and FPP limited the quantity of MgCl2 we could add, the measured Kd could be larger than the true value.
Fig. 3. ITC with FicD and Farnesyl-pyrophosphate. Representative ITC thermogram for FPP binding to Δ104hFicD^L258D (Upper). […] Dissociation constants (Kd) of individual replicates and global fitting of triplicate isotherms are reported with 1σ error intervals in parenthesis. TEXT PRINTED IN THE PICTURE: no label printed: Kd (nM): 32.3 (15.6, 54.9) (Replicate 1); Kd (nM): 25.6 (10.1, 47.7) (Replicate 2); Kd (nM): 45.2 (29.4, 68.8) (Replicate 3); Kd (nM): 60.3 (23.1, 126.3) (Global) DOUBTS OF THE COPYIST ABOUT THIS PICTURE: The picture prints no substance label; the table rows are replicates and a global fit of one measurement, so all four Kd values are given under one unlabeled substance. […]
Isothermal Titration Calorimetry
Proteins were dialyzed against 25mM HEPES pH 7.4/100mM KCl/10% glycerol prior to titration.
Dialyzed proteins were then spun down at 21,000G for 15 minutes at 4C to remove trace insoluble material. The protein concentration was measured spectrophotometrically and then diluted to working concentration with 25mM HEPES pH 7.4/100mM KCl/10% glycerol. MgCl2 was added to proteins to a final concentration of 4mM. ITC experiments were performed in a Micro-Cal PEAQ-ITC (Malvern Panalytical, Worcestershire, UK) calorimeter with a stirred 206.2 μL reaction cell held at 20 °C. 250μM FPP was titrated into 25uM Δ104hFicL258D with 750rpm stirring. The first injection was 0.5 μL, followed by twenty 1.9 μL injections. ITC data were integrated and baseline corrected using NITPIC 2.1.5 (10, 11). Integrated data was globally analyzed in SEDPHAT 15.b (12) using a model considering a single class of binding sites. […]
10% Lithium dodecyl sulfate, 50% glycerol, 50mM DTT, 0.05% Bromophenol blue) and then heated […]
For deAMPylation assays with FicD and BiP, Δ26hBiPT229A was in-vitro AMPylated by […]
5mM MgCl2, 500uM ATP, 0.5% CHAPS, 1mM DTT. After one hour of incubation at 30-37C, the entire reaction mix was transferred into an Amicon 0.5mL 50kDa MWCO concentrator (cat no.
7.4/150mM NaCl/10% glycerol/1mM DTT was added to the concentrated AMPylation reaction and then spun down again at 14,000 x g at 4C for 5-10 minutes. This step was repeated four times to buffer exchange AMPylated Δ26hBiPT229A.
Δ104hFicDWT and Δ26hBiPT229A-AMP were combined at a ratio of 1:80 in buffer containing 25mM HEPES pH 7.4, 100mM KCl, 5mM MgCl2, 1mM DTT and the indicated small molecule where applicable. Reactions were incubated at 37C for 1 hour and stopped by the addition EDTA. 5X SDS sample buffer (250mM Tris pH 6.8, 10% Lithium dodecyl sulfate, 50% glycerol, 50mM DTT, 0.05% Bromophenol blue) was then added to the reactions and reactions were heated for 5 minutes at […]
For in-vitro AMPylation assays with VopS and CDC42, Δ30VopS and GST-CDC42 – provided by a previous lab member – were combined at a 1:80 molar ratio in 50mM Tris pH 7.4/100mM NaCl/1mM DTT in the presence of GPP or FPP, where applicable. […]
(ITC needs no label: the signal is the heat of the interaction.)

Turning to `CC(C)=CCC/C(C)=C/CC/C(C)=C/COP(=O)(O)OP(=O)(O)O` [FPP, farnesyl-pyrophosphate], the “stoichiometry of binding to FicD (ITC)” value was under 0.85.
